{"source": "patent US6737383B1", "about": "“Herbicidal oxadiazolidines” (priority 1999, dated 2004)", "key": {"[1]": {"tested_on": "pigweed", "assay": "Test B pre/postemergence pigweed", "format": "in vivo, Amaranthus retroflexus", "method_in_brief": "(§1)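 Test chemicals in a non-phytotoxic solvent mixture with surfactant were sprayed preemergence onto planted seeds and postemergence onto plants 2 to 18 cm tall (1- to 4-leaf stage). After twelve to sixteen days in a greenhouse, injury was visually rated against untreated controls from 0 (no effect) to 10 (complete control).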"}, "[2]": {"tested_on": "sugar beet", "assay": "Test B pre/postemergence sugar beet", "format": "in vivo, Beta vulgaris", "method_in_brief": "as §1"}, "[3]": {"tested_on": "purple nutsedge", "assay": "Test B pre/postemergence purple nutsedge", "format": "in vivo, Cyperus rotundus", "method_in_brief": "as §1"}, "[4]": {"tested_on": "rice", "assay": "Test B flood test rice", "format": "in vivo, Oryza sativa", "method_in_brief": "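Read-out is a visual response score from 0 (no effect) to 10 (complete control), assigned by comparison with untreated controls. Treatment was applied at the 2-leaf stage, and plants stayed in the greenhouse for twelve to sixteen days before scoring.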"}, "[5]": {"tested_on": "common ragweed", "assay": "Test D common ragweed", "format": "in vivo, Ambrosia elatior", "settings": "Preemergence, 0 to 100 scale", "method_in_brief": "(§2)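 Weed seeds planted in sandy loam; species kept apart in individual pots or compartments. Preemergence tests: treatment to soil surface within one day. Greenhouse growth, then visual injury scoring at 14–21 days (0–100).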"}, "[6]": {"tested_on": "large crabgrass", "assay": "Test D large crabgrass", "format": "in vivo, Digitaria sanguinalis", "settings": "Preemergence, 0 to 100 scale", "method_in_brief": "as §2"}, "[7]": {"tested_on": "winter wheat", "assay": "Test E winter wheat", "format": "in vivo, Triticum aestivum", "settings": "Postemergence; for Plant response rating, Wheat (winter): 0 to 100 scale", "method_in_brief": "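Greenhouse test: for postemergence, foliar application at 1- to 4-leaf stage; compound in non-phytotoxic solvent with surfactant. Rating is visual, relative to untreated controls, about 21 to 28 days after treatment.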"}, "[8]": {"tested_on": "blackgrass", "assay": "Test E blackgrass", "format": "in vivo, Alopecurus myosuroides", "settings": "Preemergence"}, "[9]": {"tested_on": "green foxtail", "assay": "Test E green foxtail", "format": "in vivo, Setaria viridis", "settings": "Preemergence"}, "[10]": {"tested_on": "Italian ryegrass", "assay": "Test E Italian ryegrass", "format": "in vivo, Lolium multiflorum", "settings": "Preemergence"}, "[11]": {"tested_on": "winter wheat", "assay": "Test E winter wheat", "format": "in vivo, Triticum aestivum", "settings": "Preemergence"}, "[12]": {"tested_on": "wild oat", "assay": "Test E wild oat", "format": "in vivo, Avena fatua", "settings": "Preemergence"}, "[13]": {"tested_on": "winter barley", "assay": "Test E winter barley", "format": "in vivo, Hordeum vulgare", "settings": "Preemergence"}, "[14]": {"settings": "Postemergence, Rate 62 g/ha, scale 0 to 10, 0 is no effect, 10 is complete control"}, "[15]": {"settings": "Postemergence, Rate 250 g/ha, scale 0 to 10, 0 no effect, 10 complete control"}, "[16]": {"settings": "Preemergence, Rate 62 g/ha, scale 0 to 10, 0 is no effect, 10 is complete control"}, "[17]": {"settings": "Preemergence, Rate 125 g/ha, scale 0 to 10 (0 no effect, 10 complete control)"}, "[18]": {"settings": "Preemergence, Rate 250 g/ha, scale of 0 to 10 where 0 is no effect and 10 is complete control"}, "[19]": {"settings": "Preemergence, Rate 500 g/ha, scale 0 (no effect) to 10 (complete control)"}, "[20]": {"settings": "Rate 125 g/ha, Postemergence, scale 0 to 10, 0 no effect, 10 complete control"}, "[21]": {"settings": "Rate 500 g/ha, Postemergence, 0 to 10 scale (0 no effect, 10 complete control)"}, "[22]": {"settings": "Postemergence, Rate 125 g/ha, scale of 0 to 10 where 0 is no effect and 10 is complete control"}, "[23]": {"settings": "Preemergence, Rate 62 g/ha, scale 0 to 10 (0 no effect, 10 complete control)"}, "[24]": {"settings": "Preemergence, Rate 125 g/ha, 0 is no effect, 10 is complete control"}, "[25]": {"settings": "Preemergence, Rate 250 g/ha, scale 0 to 10, 0 is no effect, 10 is complete control"}, "[26]": {"settings": "Preemergence, Rate 500 g/ha, scale 0 to 10 (0 no effect, 10 complete control)"}, "[27]": {"settings": "Rate 62 g/ha, Postemergence, scale of 0 to 10 where 0 is no effect and 10 is complete control"}, "[28]": {"settings": "Rate 250 g/ha, Postemergence, scale 0 to 10, 0 is no effect, 10 is complete control"}, "[29]": {"settings": "Rate 500 g/ha, Postemergence, scale 0 to 10"}, "[30]": {"settings": "Rate 64 g/ha, 0 no injury, 100 complete control"}, "[31]": {"settings": "Rate 125 g/ha, 0 to 100 scale (0 no effect, 100 complete control)"}, "[32]": {"settings": "Rate 500 g/ha, 0 to 100 scale where 0 is no effect and 100 is complete control"}}, "data": [{"molecule": "Cc1ccccc1-n1c(=O)on(C(=O)N(c2ccccc2)C(C)C)c1=O", "note": "[Compound 36]", "values": [{"measurement": "Redroot pigweed plant response rating", "setting": "[1]; [14]", "value": 2}, {"measurement": "Redroot pigweed plant response rating", "setting": "[1]; [15]", "value": 7}, {"measurement": "Plant response rating, Redroot pigweed", "setting": "[1]; [16]", "value": 0}, {"measurement": "Plant response rating, Redroot pigweed", "setting": "[1]; [17]", "value": 0}, {"measurement": "Plant response rating, Redroot pigweed", "setting": "[1]; [18]", "value": 6}, {"measurement": "Redroot pigweed plant response rating", "setting": "[1]; [19]", "value": 7}, {"measurement": "Redroot pigweed plant response rating", "setting": "[1]; [20]", "value": 5}, {"measurement": "Redroot pigweed plant response rating", "setting": "[1]; [21]", "value": 7}, {"measurement": "Sugarbeets plant response rating", "setting": "[2]; [14]", "value": 0}, {"measurement": "Sugarbeets plant response rating", "setting": "[2]; [15]", "value": 0}, {"measurement": "Plant response rating, Sugarbeets", "setting": "[2]; [16]", "value": 0}, {"measurement": "Plant response rating, Sugarbeets", "setting": "[2]; [17]", "value": 0}, {"measurement": "Plant response rating, Sugarbeets", "setting": "[2]; [18]", "value": 0}, {"measurement": "Sugarbeets plant response rating", "setting": "[2]; [19]", "value": 5}, {"measurement": "Sugarbeets plant response rating", "setting": "[2]; [20]", "value": 0}, {"measurement": "Nutsedge plant response rating", "setting": "[3]; [14]", "value": 0}, {"measurement": "Nutsedge plant response rating", "setting": "[3]; [15]", "value": 0}, {"measurement": "Plant response rating, Nutsedge", "setting": "[3]; [16]", "value": 0}, {"measurement": "Plant response rating, Nutsedge", "setting": "[3]; [17]", "value": 0}, {"measurement": "Plant response rating, Nutsedge", "setting": "[3]; [18]", "value": 0}, {"measurement": "Nutsedge plant response rating", "setting": "[3]; [19]", "value": 0}, {"measurement": "Nutsedge plant response rating", "setting": "[3]; [20]", "value": 0}, {"measurement": "Nutsedge plant response rating", "setting": "[3]; [21]", "value": 0}, {"measurement": "Rice plant response rating", "setting": "[4]; [14]", "value": 0}, {"measurement": "Rice plant response rating", "setting": "[4]; Rate 125 g/ha, Postemergence section (flood test species), scale 0 to 10, 0 no effect, 10 complete control", "value": 0}, {"measurement": "Rice plant response rating", "setting": "[4]; Rate 250 g/ha, headed Pre-emergence (flood test species), scale 0 to 10 (0 no effect, 10 complete control)", "value": 0}, {"measurement": "Rice plant response rating", "setting": "[4]; Rate 500 g/ha, Postemergence section of Table B, 0 to 10 scale (0 no effect, 10 complete control)", "value": 2}, {"measurement": "Plant response rating, Rice", "setting": "[4]; Rate 500 g/ha, headed Pre-emergence (flood test species), scale 0 to 10 (0 no effect, 10 complete control)", "value": 0}, {"measurement": "Rice plant response rating", "setting": "[4]; Rate 1000 g/ha, Pre-emergence (as headed), scale 0 to 10", "value": 0}, {"measurement": "Rice plant response rating", "setting": "[4]; Rate 2000 g/ha, Pre-emergence (as headed), scale 0 to 10", "value": 0}, {"measurement": "Rice plant response rating", "setting": "[4]; flood test, listed under Postemergence, Rate 250 g/ha, scale 0 to 10, 0 no effect, 10 complete control", "value": 0}, {"measurement": "Plant response rating, C. ragweed", "setting": "[5]; Rate 500 g/ha", "value": 10}, {"measurement": "Plant response rating Large crabgrass", "setting": "[6]; Rate 500 g/ha", "value": 100}]}, {"molecule": "Cc1ccc(N(C(=O)n2oc(=O)n(C(C)C)c2=O)C(C)C)cc1", "note": "[Compound 132]", "values": [{"measurement": "Redroot pigweed plant response rating", "setting": "[1]; [22]", "value": 0}, {"measurement": "Redroot pigweed plant response rating", "setting": "[1]; [23]", "value": 2}, {"measurement": "Redroot pigweed plant response rating (0 to 10 scale)", "setting": "[1]; [24]", "value": 6}, {"measurement": "Redroot pigweed plant response rating", "setting": "[1]; [25]", "value": 7}, {"measurement": "Redroot pigweed plant response rating", "setting": "[1]; [26]", "value": 7}, {"measurement": "Redroot pigweed plant response rating", "setting": "[1]; [27]", "value": 0}, {"measurement": "Plant response rating, Redroot pigweed", "setting": "[1]; [28]", "value": 0}, {"measurement": "Redroot pigweed plant response rating", "setting": "[1]; [29]", "value": 2}, {"measurement": "Sugarbeets plant response rating", "setting": "[2]; [22]", "value": 0}, {"measurement": "Sugarbeets plant response rating", "setting": "[2]; [23]", "value": 2}, {"measurement": "Sugarbeets plant response rating (0 to 10 scale)", "setting": "[2]; [24]", "value": 5}, {"measurement": "Sugarbeets plant response rating", "setting": "[2]; [25]", "value": 6}, {"measurement": "Sugarbeets plant response rating", "setting": "[2]; [26]", "value": 8}, {"measurement": "Sugarbeets plant response rating", "setting": "[2]; [27]", "value": 0}, {"measurement": "Plant response rating, Sugarbeets", "setting": "[2]; [28]", "value": 0}, {"measurement": "Sugarbeets plant response rating", "setting": "[2]; [29]", "value": 2}, {"measurement": "Nutsedge plant response rating", "setting": "[3]; [22]", "value": 2}, {"measurement": "Nutsedge plant response rating", "setting": "[3]; [23]", "value": 0}, {"measurement": "Nutsedge plant response rating (0 to 10 scale)", "setting": "[3]; [24]", "value": 0}, {"measurement": "Nutsedge plant response rating", "setting": "[3]; [25]", "value": 0}, {"measurement": "Nutsedge plant response rating", "setting": "[3]; [26]", "value": 9}, {"measurement": "Nutsedge plant response rating", "setting": "[3]; [27]", "value": 0}, {"measurement": "Plant response rating, Nutsedge", "setting": "[3]; [28]", "value": 3}, {"measurement": "Nutsedge plant response rating", "setting": "[3]; [29]", "value": 4}, {"measurement": "Plant response rating, C. ragweed", "setting": "[5]; [30]", "value": 0}, {"measurement": "Plant response rating Large crabgrass", "setting": "[6]; [30]", "value": 100}, {"measurement": "Plant response rating, Wheat (winter)", "setting": "[7]; Rate 125 g/ha", "value": 20}, {"measurement": "Plant response rating, Wheat (winter)", "setting": "[7]; Rate 500 g/ha, 0 no effect, 100 complete control", "value": 80}, {"measurement": "Wheat (winter) plant response rating", "setting": "[7]; Rate 250 g/ha, 0 to 100 scale where 0 is no effect and 100 is complete control", "value": 50}, {"measurement": "Plant response rating, Blackgrass", "setting": "[8]; [31]", "value": 20}, {"measurement": "Blackgrass plant response rating (0 to 100 scale)", "setting": "[8]; Rate 250 g/ha", "value": 60}, {"measurement": "Plant response rating, Blackgrass", "setting": "[8]; [32]", "value": 75}, {"measurement": "Plant response rating, Green foxtail", "setting": "[9]; [31]", "value": 60}, {"measurement": "Green foxtail plant response rating (0 to 100 scale)", "setting": "[9]; Rate 250 g/ha", "value": 98}, {"measurement": "Plant response rating, Green foxtail", "setting": "[9]; [32]", "value": 100}, {"measurement": "Plant response rating, I. Ryegrass", "setting": "[10]; [31]", "value": 20}, {"measurement": "I. Ryegrass plant response rating (0 to 100 scale)", "setting": "[10]; Rate 250 g/ha", "value": 100}, {"measurement": "Plant response rating, I. Ryegrass", "setting": "[10]; [32]", "value": 100}, {"measurement": "Plant response rating, Wheat (winter)", "setting": "[11]; [31]", "value": 30}, {"measurement": "Wheat (winter) plant response rating (0 to 100 scale)", "setting": "[11]; Rate 250 g/ha", "value": 40}, {"measurement": "Plant response rating, Wheat (winter)", "setting": "[11]; [32]", "value": 60}, {"measurement": "Plant response rating, Wild oat", "setting": "[12]; [31]", "value": 35}, {"measurement": "Wild oat plant response rating (0 to 100 scale)", "setting": "[12]; Rate 250 g/ha", "value": 50}, {"measurement": "Plant response rating, Wild oat", "setting": "[12]; [32]", "value": 65}, {"measurement": "Plant response rating, Barley (winter)", "setting": "[13]; [31]", "value": 10}, {"measurement": "Barley (winter) plant response rating (0 to 100 scale)", "setting": "[13]; Rate 250 g/ha", "value": 50}, {"measurement": "Plant response rating, Barley (winter)", "setting": "[13]; [32]", "value": 60}]}]}
